Assay results published in patent US11447504B2, “Macrocyclic chlorine substituted indole derivatives” (Bayer Aktiengesellschaft, priority 2017, dated 2022).
Counter-ions that a name gives are not always drawn. Like-named read-outs stand apart in the source and are kept apart here.

Experiments:
[1] = tested on: SUDHL5; assay: Antiproliferation assay 7, SUDHL5; assay type: cell-based; details: SUDHL5 cells, CellTiter-Glo, read-out: Antiproli SUDHL5 IC50 (median)
Method in brief: (§1)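 Proliferation was read by CellTiter-Glo luminescence after 72 hours of compound treatment at 37° C. The read was referenced to a parallel plate measured at time zero.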

[2] = tested on: SUDHL5; assay: Induction of caspase-3/7 activity (Assay 4), SUDHL5; assay type: cell-based; details: SUDHL5 cells
Method in brief: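 DLBCL cells treated with compounds for 3 hours at 37° C. Caspase-3/7 activity measured by Caspase-Glo 3/7 luminescence, with medium-only background subtracted.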

[3] = tested on: SUDHL10; assay: Induction of cytotoxicity (Assay 6), SUDHL10
[4] = tested on: SUDHL5; assay: Induction of cytotoxicity (Assay 6), SUDHL5
[5] = tested on: SUDHL10; assay: Induction of caspase-3/7 activity (Assay 4), SUDHL10; assay type: cell-based; details: SUDHL10 cells
Method in brief: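 Luminescent Caspase-Glo 3/7 read-out after a 3 h, 37 °C compound exposure of the DLBCL line SUDHL10. Values are background-corrected using medium-only wells.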

[6] = tested on: MV-4-11; assay: Antiproliferation assay 7, MV-4-11; assay type: cell-based; details: MV-4-11 cells, CellTiter-Glo, read-out: Antiproli MV-4-11 IC50 median
Method in brief: as §1

[7] = tested on: AMO-1; assay: Antiproliferation assay 7, AMO-1; assay type: cell-based; details: AMO-1 cells, CellTiter-Glo, read-out: Antiproli AMO-1 IC50 median
Method in brief: as §1

[8] = tested on: SUDHL10; assay: Antiproliferation assay 7, SUDHL10; assay type: cell-based; details: SUDHL10 cells, CellTiter-Glo, read-out: Antiproli SUDHL10 IC50 (median)
Protocol: Assessment of the Anti-Proliferative Effect of Compounds in Different Cell Lines
The impact of compounds on the proliferation of different cell lines was assessed using the CellTiter-Glo® Luminescent Cell Viability reagent from Promega (G7573).
In parallel, cells were plated in a reference (day 0) plate for time zero determination.
Rim wells were excluded. The cells were incubated for 72 hours in a humidified incubator at 37° C. The day 0 plate was measured by adding 30 μL/well of CTG solution (CellTiter-Glo® Luminescent Cell Viability reagent, Promega G7573) to time zero wells in the reference plate followed by a 10 minutes incubation and luminescence reading at 0.1 ms. using the PHERAstar FS microplate reader (BMG Labtech).
After 72 hours incubation, the treated plates were measured in the same way as the day 0 plate mentioned above.

[9] = molecular target: MCL-1 (Homo sapiens (Human), UniProt Q07820, K194A/K197A/R201A); assay: Protein-protein interaction assay MCL-1/Noxa BH3 peptide (MCL-1 Assay, TR-FRET); assay type: binding; details: read-out: MCL-1 Assay IC50 (median)
Protocol: The dose-dependent inhibition by the compounds described in this invention of the interaction between MCL-1 and the BH3 domain of Noxa (both human) was determined using a steady state binding competition assay with time-resolved fluorescence energy transfer (TR-FRET) readout. […] The MBP-MCL-1 was purchased from Beryllium (Bedford, Mass., USA). The expression and purification of this protein construct has been described elsewhere (DOI:10.1371/journal.pone.0125010). The Noxa BH3-derived peptide can be obtained from e.g. Biosyntan (Berlin, Germany).
For that, 100-fold concentrated DMSO solutions were prepared by serial dilutions (1:3.4) of a 2 mM stock solution in a clear, 384-well microtiter plate (Greiner Bio-One, Frickenhausen, Germany). From there, 50 nl were transferred in a dark test plate (Greiner Bio-One, Frickenhausen, Germany). […] This was followed by a 10-minute incubation step at 22° C. for pre-equilibration of the putative complex between MBP-MCL-1 and the compounds.
The mixture was incubated in the dark for one hour at 22° C. and then overnight at 4° C.
The resulting data (ratio) were normalized, taking 0% inhibition as the mean value of control measurements (usually 32 data points) where all reagents were included. In this case 50 nl DMSO were used instead of compounds. […] IC50 values were determined by regression analysis based on a 4 parameter equation (minimum, maximum, IC50, Hill; Y=Max+(Min−Max)/(1+(X/IC50)^Hill) using the Screener Software (Genedata).

[10] = tested on: HMC-1-8; assay: Antiproliferation assay 7, HMC-1-8; assay type: cell-based; details: HMC-1-8 cells, CellTiter-Glo, read-out: Antiproli HMC-1-8 IC50 median
Method in brief: as §1

[11] = Homo sapiens, SU-DHL-5, 3 h, Caspase-Glo 3/7, read-out: Caspase SUDHL5 EC50 (median)
[12] = Homo sapiens, SU-DHL10, 5 h, read-out: Cytotox SUDHL10 IC50 (median), SUDHL10 cells, 5 hours, CellTiter-Glo
[13] = Homo sapiens, SU-DHL-5, 5 h, read-out: Cytotox SUDHL5 IC50 (median), SUDHL5 cells, 5 hours, CellTiter-Glo
[14] = Homo sapiens, SU-DHL10, 3 h, Caspase-Glo 3/7, read-out: Caspase SUDHL10 EC50 (median)
[15] = 3 hours, Caspase-Glo 3/7, read-out: Caspase SUDHL5 EC50 (median)
[16] = read-out: Cytotox SUDHL10 IC50 (median), SUDHL10 cells, 5 hours, CellTiter-Glo
[17] = read-out: Cytotox SUDHL5 IC50 (median), SUDHL5 cells, 5 hours, CellTiter-Glo
[18] = 3 hours, Caspase-Glo 3/7, read-out: Caspase SUDHL10 EC50 (median)

Chain of MCL-1 (Q07820 whole entry K194A/K197A/R201A, looked up, the tested form may be a part): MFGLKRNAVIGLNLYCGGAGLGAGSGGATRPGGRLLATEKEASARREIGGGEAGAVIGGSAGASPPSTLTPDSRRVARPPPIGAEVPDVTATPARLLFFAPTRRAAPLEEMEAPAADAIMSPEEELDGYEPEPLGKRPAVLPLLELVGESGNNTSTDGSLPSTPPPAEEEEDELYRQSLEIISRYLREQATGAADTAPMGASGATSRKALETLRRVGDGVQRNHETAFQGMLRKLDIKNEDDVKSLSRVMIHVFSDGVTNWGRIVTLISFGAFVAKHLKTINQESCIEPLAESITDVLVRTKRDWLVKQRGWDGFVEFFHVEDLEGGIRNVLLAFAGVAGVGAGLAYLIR

Work on `Cc1c2c(nn1C)COCCCCn1c(C(=O)O)c(CCCOc3cccc4cc(F)ccc34)c3ccc(Cl)c-2c31` (racemic) [Example 14, (rac)-4-chloro-7-{3-[(6-fluoronaphthalen-1-yl)oxy]propyl}-2,3-dimethyl-2,10,11,12,13,15-hexahydropyrazolo[4′,3′:9,10][1,6]oxazacycloundecino[8,7,6-hi]indole-8-carboxylic Acid] yielded an IC50 ([1]; Homo sapiens, SU-DHL-5, 72 h) of 510 nM, an EC50 [2, 11] of 250 nM and an IC50 [3, 12] of 610 nM. The IC50 [4, 13] was 390 nM, the EC50 [5, 14] was 410 nM and the IC50 ([6]; Homo sapiens, MV4-11, 72 h) was 1230 nM. For the same molecule, the IC50 ([7]; Homo sapiens, AMO1, 72 h) was 737 nM and the IC50 ([8]; Homo sapiens, SU-DHL10, 72 h) was 420 nM.

In the case of `Cc1nn(C)c2c1-c1c(Cl)ccc3c(CCCOc4cccc5ccccc45)c(C(=O)O)n(c13)CCCCOC2` (single isomer, unassigned; enantiomer 2) [Example 4, 4-chloro-1,3-dimethyl-7-[3-(naphthalen-1-yloxy)propyl]-1,10,11,12,13,15-hexahydropyrazolo[4′,3′:9,10][1,6]oxazacycloundecino[8,7,6-hi]indole-8-carboxylic Acid (Enantiomer 2)], the IC50 ([1]; 72 hours) is reported as 13000 nM, the EC50 [2, 15] is reported as > 28000 nM and the IC50 [3, 16] is reported as > 33000 nM. For the same molecule, the IC50 [4, 17] was 26000 nM, the EC50 [5, 18] was > 33000 nM and the IC50 ([8]; 72 hours) was 12000 nM.

With `CCc1c2c(nn1C)N(CCC1CCOCC1)CCCCCn1c(C(=O)O)c(CCCOc3cccc4cc(F)ccc34)c3ccc(Cl)c-2c31` (racemic) [Example 80, (rac)-4-chloro-3-ethyl-7-{3-[(6-fluoronaphthalen-1-yl)oxy]propyl}-2-methyl-15-[2-(oxan-4-yl)ethyl]-10,11,12,13,14,15-hexahydro-2H-pyrazolo[4′,3′:4,5][1,6]diazacycloundecino[3,2,1-hi]indole-8-carboxylic Acid] the IC50 ([1]; Homo sapiens, SU-DHL-5, 72 h) was 410 nM, the EC50 [2, 11] was 400 nM and the IC50 [9] was 2 nM. For the same molecule, the IC50 [3, 12] was 530 nM, the IC50 [4, 13] was 500 nM and the EC50 [5, 14] was 600 nM. For the same molecule, the IC50 ([7]; Homo sapiens, AMO1, 72 h) was 270 nM and the IC50 ([10]; 72 h) was 4000 nM.

With `Cc1c2c(nn1C)OCCCCCn1c(C(=O)O)c(CCCOc3cccc4cc(F)ccc34)c3ccc(Cl)c-2c31` (single isomer, unassigned; enantiomer 1) [Example 84, 4-chloro-7-{3-[(6-fluoronaphthalen-1-yl)oxy]propyl}-2,3-dimethyl-11,12,13,14-tetrahydro-2H,10H-pyrazolo[3′,4′:2,3][1,6]oxazacycloundecino[4,5,6-hi]indole-8-carboxylic Acid—Enantiomer 1] the IC50 ([1]; Homo sapiens, SU-DHL-5, 72 h) was 1300 nM, the EC50 [2, 11] was 1000 nM and the IC50 [9] was 1.9 nM. It also gave an IC50 [3, 12] of 1500 nM, an IC50 [4, 13] of 1100 nM and an EC50 [5, 14] of 1300 nM. The IC50 ([7]; Homo sapiens, AMO1, 72 h) was 230 nM and the IC50 ([10]; 72 h) was 12000 nM.

Molecule `Cc1c2c(nn1CCCN1CCN(C)CC1)COCCCCn1c(C(=O)O)c(CCCOc3cccc4ccccc34)c3ccc(Cl)c-2c31` (single isomer, unassigned; enantiomer 2) [Example 50, (−)-4-chloro-3-methyl-2-[3-(4-methylpiperazin-1-yl)propyl]-7-{3-[(naphthalen-1-yl)oxy]propyl}-2,10,11,12,13,15-hexahydropyrazolo[4′,3′:9,10][1,6]oxazacycloundecino[8,7,6-hi]indole-8-carboxylic Acid (Enantiomer 2)] has an IC50 ([1]; 72 hours) of 6700 nM, an EC50 [2, 15] of 13000 nM and an IC50 [9] of 15 nM. The IC50 [3, 16] was 8600 nM, the IC50 [4, 17] was 8400 nM and the EC50 [5, 18] was 12000 nM. It also gave an IC50 ([7]; 72 hours) of 13300 nM and an IC50 ([10]; 72 hours) of 12400 nM.

`Cc1nn(C)c2c1-c1c(Cl)ccc3c(CCCOc4cccc5ccccc45)c(C(=O)O)n(c13)C/C=C\COC2` (racemic) [Example 1, (rac)-(11Z)-4-chloro-1,3-dimethyl-7-[3-(naphthalen-1-yloxy)propyl]-1,10,13,15-tetrahydropyrazolo[4′,3′:9,10][1,6]oxazacycloundecino[8,7,6-hi]indole-8-carboxylic Acid] was tested, and the IC50 ([1]; Homo sapiens, SU-DHL-5, 72 h) was 5700 nM, the EC50 [2, 11] was 2900 nM and the IC50 [4, 13] was 2900 nM. The EC50 [5, 14] was 5500 nM and the IC50 ([8]; Homo sapiens, SU-DHL10, 72 h) was 5700 nM.

`CCc1c2c(nn1C)CN(C)CCCCn1c(C(=O)O)c(CCCOc3cccc4cc(F)ccc34)c3ccc(Cl)c-2c31` (racemic) [Example 5, (rac)-4-chloro-3-ethyl-7-{3-[(6-fluoronaphthalen-1-yl)oxy]propyl}-2,14-dimethyl-10,11,12,13,14,15-hexahydro-2H-pyrazolo[3′,4′:8,9][1,6]diazacycloundecino[10,11,1-hi]indole-8-carboxylic Acid] gave an IC50 ([1]; Homo sapiens, SU-DHL-5, 72 h) of 330 nM, an EC50 [2, 11] of 270 nM and an IC50 [3, 12] of 530 nM. The IC50 [4, 13] was 290 nM, the EC50 [5, 14] was 610 nM and the IC50 ([6]; Homo sapiens, MV4-11, 72 h) was 701 nM. It also gave an IC50 ([7]; Homo sapiens, AMO1, 72 h) of 611 nM and an IC50 ([8]; Homo sapiens, SU-DHL10, 72 h) of 280 nM.

With `Cc1c2c(nn1CCCN1CCN(C)CC1)COCCCCn1c(C(=O)O)c(CCCOc3cccc4ccccc34)c3ccc(Cl)c-2c31` (racemic) [Example 48, (rac)-4-chloro-3-methyl-2-[3-(4-methylpiperazin-1-yl)propyl]-7-{3-[(naphthalen-1-yl)oxy]propyl}-2,10,11,12,13,15-hexahydropyrazolo[4′,3′:9,10][1,6]oxazacycloundecino[8,7,6-hi]indole-8-carboxylic Acid] the IC50 ([1]; Homo sapiens, SU-DHL-5, 72 h) was 570 nM, the EC50 [2, 11] was 590 nM and the IC50 [9] was 1.7 nM. It also gave an IC50 [3, 12] of 1000 nM, an IC50 [4, 13] of 590 nM and an EC50 [5, 14] of 590 nM. For the same molecule, the IC50 ([6]; Homo sapiens, MV4-11, 72 h) was 918 nM and the IC50 ([7]; Homo sapiens, AMO1, 72 h) was 1490 nM.

`Cc1c2c(nn1C)CN(C)CCCCn1c(C(=O)O)c(CCCOc3cccc4cc(F)ccc34)c3ccc(Cl)c-2c31` (single isomer, unassigned; enantiomer 2) [Example 32, (−)-4-chloro-7-{3-[(6-fluoronaphthalen-1-yl)oxy]propyl}-2,3,14-trimethyl-10,11,12,13,14,15-hexahydro-2H-pyrazolo[3′,4′:8,9][1,6]diazacycloundecino[10,11,1-hi]indole-8-carboxylic acid-N-ethylethanamine Salt (Enantiomer 2)] gave an IC50 ([1]; 72 hours) of 6000 nM, an EC50 [2, 15] of 11000 nM and an IC50 [9] of 26 nM. For the same molecule, the IC50 [3, 16] was 14000 nM, the IC50 [4, 17] was 9300 nM and the EC50 [5, 18] was 25000 nM. The IC50 ([6]; 72 hours) was 14000 nM and the IC50 ([7]; 72 hours) was 19600 nM.
